We go through one compound from patent publication US4010191A, “Acyl derivatives of substituted bis-arylalkylamino compounds” (Deutsche Gold- und Silber-Scheideanstalt vormals Roessler, priority 1969, dated 1977).

For assay [1], the system named is detached tracheas obtained from guinea pigs. The experiment in a line: Broncholytic action on detached tracheas (histamine spasm). Further details: species or system guinea pig. As to conditions: comparative tests.
Assay [2] has as its system heart. The experiment in a line: Heart and circulatory action, comparative tests with papaverine (Langendorff hearts / dogs). More on the design: species or system guinea pig; dog. The procedure:
The compounds of the invention were tested in detached guinea pig hearts by the method of Langendorff (Pfluger's Arch. 61 (1895) 291) in respect of the coronary flow, the inotropic action and the heart frequency. Also there were tested in anaesthetized dogs which had been subjected to a thoracostomy.
The significant parameters of the heart and circulatory activity in this case were determined by means of electromagnetic flux measurement and pressure measurement in the interior of the heart ventricle.

With `COc1ccc(Cc2nccc3cc(OC)c(OC)cc23)cc1OC` [papaverine], the “duration of action compared to the compounds of the invention” value in assay [1] is listed as “substantially shorter duration”. Besides, the “inotropy compared with the compounds of the invention” value in assay [2] is “smaller inotropy”. In addition, the “duration of action compared with the compounds of the invention” value in assay [2] (heart and circulatory action) is reported as “substantially shorter duration of action”.
